The values below come from US11173151B2, “Substituted triazole derivatives and uses thereof” (BAYER AKTIENGESELLSCHAFT, priority 2017, dated 2021).

Where two headings read alike, the source gives them in different places.

One test concerns the target T1, human V2 receptor (Homo sapiens, UniProt P30518).
T1 construct: expressed in transfected cells; host or cells: CHO K1 (ATCC) expressing firefly luciferase under a CRE-responsive promoter
Description: Cellular in vitro assay for determining vasopressin receptor activity, V2 receptor cell line (CHO, CRE-luciferase). The format is cell-based. The note with it: CHO cell line transfected with human V2 receptor, [Arg8]-vasopressin at EC50 concentration, read-out: IC50 hV2.

The next test addresses T2, human V1a receptor (Homo sapiens, UniProt P37288).
T2 construct: expressed in transfected cells; host or cells: CHO K1 (ATCC), also stably transfected with a modified aequorin
Description: Cellular in vitro assay for determining vasopressin receptor activity, V1a receptor cell line (CHO, aequorin luminescence). Type of test: cell-based. The settings on record: for IC50: CHO cell line transfected with human V1a receptor, [Arg]-vasopressin at EC50 concentration, read-out: IC50 hV1a; for ratio IC50 hV2/hV1a: selectivity ratio IC50 hV2 / IC50 hV1a. The procedure, abridged:
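IC50 from inhibition of [Arg]-vasopressin (EC50 concentration)-evoked aequorin luminescence in CHO K1 cells, with 10-min compound pretreatment.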

A word on the IC50: it is the concentration at which inhibition is half-maximal.

T1 sequence (P30518 whole entry): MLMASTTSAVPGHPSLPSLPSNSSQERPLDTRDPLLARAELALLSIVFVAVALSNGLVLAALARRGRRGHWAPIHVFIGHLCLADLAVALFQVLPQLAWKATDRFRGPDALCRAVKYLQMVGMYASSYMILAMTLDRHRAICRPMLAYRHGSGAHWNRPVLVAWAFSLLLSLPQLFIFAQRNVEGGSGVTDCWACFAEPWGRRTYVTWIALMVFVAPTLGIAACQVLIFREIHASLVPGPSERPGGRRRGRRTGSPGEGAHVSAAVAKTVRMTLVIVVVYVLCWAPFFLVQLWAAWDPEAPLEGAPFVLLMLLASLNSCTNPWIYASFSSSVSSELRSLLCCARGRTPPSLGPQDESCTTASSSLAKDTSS
T2 sequence (P37288 whole entry): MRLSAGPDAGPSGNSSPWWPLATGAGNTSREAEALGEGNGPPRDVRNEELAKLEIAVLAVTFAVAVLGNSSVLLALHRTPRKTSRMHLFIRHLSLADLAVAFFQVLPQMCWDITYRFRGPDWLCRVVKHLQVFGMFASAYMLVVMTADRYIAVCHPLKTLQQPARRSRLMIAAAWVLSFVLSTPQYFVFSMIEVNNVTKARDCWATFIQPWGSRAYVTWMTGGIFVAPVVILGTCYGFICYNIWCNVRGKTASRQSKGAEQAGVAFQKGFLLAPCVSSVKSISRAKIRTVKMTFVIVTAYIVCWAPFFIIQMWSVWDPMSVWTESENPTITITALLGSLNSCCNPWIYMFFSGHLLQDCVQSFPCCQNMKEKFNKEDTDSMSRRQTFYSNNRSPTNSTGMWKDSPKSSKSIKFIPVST

On to `O=C(N[C@H]1C[C@H]1F)c1cccnc1-n1cnc(Cn2nc(-c3ccc(Cl)cc3)n(C[C@H](O)C(F)(F)F)c2=O)n1` (racemic) [Example 504, 2-[3-({3-(4-Chlorophenyl)-5-oxo-4-[(2S)-3,3,3-trifluoro-2-hydroxypropyl]-4,5-dihydro-1H-1,2,4-triazol-1-yl}methyl)-1H-1,2,4-triazol-1-yl]-N-[2-fluorocyclopropyl]pyridine-3-carboxamide], for which the IC50 at human V2 receptor was found to be 155 nM. Moreover, on human V1a receptor, the IC50 was determined as 3.1 nM and the “ratio IC50 hV2/hV1a” value is given as 50.0.
On the same counts, the results for `O=C1CN(c2nc(Cn3nc(-c4ccc(Cl)cc4)n(C[C@H](O)C(F)(F)F)c3=O)nn2-c2cccnc2C(=O)N[C@H]2C[C@@H]2F)CCN1` (racemic) [Example 507, 3-[3-({3-(4-Chlorophenyl)-5-oxo-4-[(2S)-3,3,3-trifluoro-2-hydroxypropyl]-4,5-dihydro-1H-1,2,4-triazol-1-yl}methyl)-5-(3-oxopiperazin-1-yl)-1H-1,2,4-triazol-1-yl]-N-[2-fluorocyclopropyl]pyridine-2-carboxamide] are 32000 nM, 4500 nM and 7.1.
With `O=C1CN(c2nc(Cn3nc(-c4ccc(Cl)cc4)n(C[C@H](O)C(F)(F)F)c3=O)nn2-c2cccnc2C(=O)N[C@@H]2C[C@@H]2F)CCN1` (racemic) [Example 508, 3-[3-({3-(4-Chlorophenyl)-5-oxo-4-[(2S)-3,3,3-trifluoro-2-hydroxypropyl]-4,5-dihydro-1H-1,2,4-triazol-1-yl}methyl)-5-(3-oxopiperazin-1-yl)-1H-1,2,4-triazol-1-yl]-N-[2-fluorocyclopropyl]pyridine-2-carboxamide], on human V2 receptor, the IC50 is 23500 nM. Further, at human V1a receptor, the IC50 came to 5150 nM and the “ratio IC50 hV2/hV1a” value is recorded as 4.6.
As to `O=C1CN(C(=O)c2nc(Cn3nc(-c4ccc(Cl)cc4)n(C[C@H](O)C(F)(F)F)c3=O)nn2-c2cnccc2C(=O)N[C@H]2C[C@H]2F)CCN1` (racemic) [Example 517, 3-{3-({3-(4-Chlorophenyl)-5-oxo-4-[(2S)-3,3,3-trifluoro-2-hydroxypropyl]-4,5-dihydro-1H-1,2,4-triazol-1-yl}methyl)-5-[(3-oxopiperazin-1-yl)carbonyl]-1H-1,2,4-triazol-1-yl}-N-[2-fluorocyclopropyl]pyridine-4-carboxamide], the IC50 amounted to 1840 nM at human V2 receptor and 490 nM at human V1a receptor. Also, the “ratio IC50 hV2/hV1a” value on human V1a receptor worked out at 3.8.
`O=C(N[C@H]1C[C@H]1F)c1ccncc1-n1nc(Cn2nc(-c3ccc(Cl)cc3)n(C[C@H](O)C(F)(F)F)c2=O)nc1C(=O)N1CCS(=O)(=O)CC1` (racemic) [Example 523, 3-{3-({3-(4-Chlorophenyl)-5-oxo-4-[(2S)-3,3,3-trifluoro-2-hydroxypropyl]-4,5-dihydro-1H-1,2,4-triazol-1-yl}methyl)-5-[(1,1-dioxidothiomorpholin-4-yl)carbonyl]-1H-1,2,4-triazol-1-yl}-N-[2-fluorocyclopropyl]pyridine-4-carboxamide]: the IC50 at human V2 receptor came out at 1100 nM. Moreover, on human V1a receptor, the IC50 was 365 nM and the “ratio IC50 hV2/hV1a” value stood at 3.0.
Consider `O=C1CN(C(=O)c2nc(Cn3nc(-c4ccc(Cl)cc4)n(C[C@H](O)C(F)(F)F)c3=O)nn2-c2ncccc2C(=O)N[C@H]2C[C@H]2F)CCN1` (racemic) [Example 527, 2-{3-({3-(4-chlorophenyl)-5-oxo-4-[(2S)-3,3,3-trifluoro-2-hydroxypropyl]-4,5-dihydro-1H-1,2,4-triazol-1-yl}methyl)-5-[(3-oxopiperazin-1-yl)carbonyl]-1H-1,2,4-triazol-1-yl}-N-[2-fluorocyclopropyl]pyridine-3-carboxamide], for which, on human V2 receptor, the IC50 stood at 1530 nM. At human V1a receptor, the IC50 was 1080 nM and the “ratio IC50 hV2/hV1a” value was found to be 1.4.
The matching figures for `O=C(N[C@H]1C[C@H]1F)c1cccnc1-n1nc(Cn2nc(-c3ccc(Cl)cc3)n(C[C@H](O)C(F)(F)F)c2=O)nc1C(=O)N1CCS(=O)(=O)CC1` (racemic) [Example 533, 2-{3-({3-(4-Chlorophenyl)-5-oxo-4-[(2S)-3,3,3-trifluoro-2-hydroxypropyl]-4,5-dihydro-1H-1,2,4-triazol-1-yl}methyl)-5-[(1,1-dioxidothiomorpholin-4-yl)carbonyl]-1H-1,2,4-triazol-1-yl}-N-[2-fluorocyclopropyl]pyridine-3-carboxamide]: 3180 nM, 146 nM and 21.8.
Take `CC(C)(N)CNC(=O)c1nc(Cn2nc(-c3ccc(Cl)cc3)n(C[C@H](O)C(F)(F)F)c2=O)nn1-c1cnccc1C(=O)N[C@H]1C[C@H]1F` (racemic) [Example 535, 3-{5-[(2-amino-2-methylpropyl)carbamoyl]-3-({3-(4-chlorophenyl)-5-oxo-4-[(2S)-3,3,3-trifluoro-2-hydroxypropyl]-4,5-dihydro-1H-1,2,4-triazol-1-yl}methyl)-1H-1,2,4-triazol-1-yl}-N-[2-fluorocyclopropyl]pyridine-4-carboxamide]: the IC50 stood at 4620 nM at human V2 receptor and 82.5 nM on human V1a receptor. The “ratio IC50 hV2/hV1a” value at human V1a receptor is 56.0.
For `O=C(Nc1ccncc1-n1cnc(Cn2nc(-c3ccc(Cl)cc3)n(C[C@H](O)C(F)(F)F)c2=O)n1)[C@@H]1C[C@@H]1F` (single isomer, unassigned) [Example 35], the IC50 at human V2 receptor (3 hours) stood at 553 nM. Besides, on human V1a receptor, the IC50 turned out to be 10.5 nM and the “ratio IC50 hV2/hV1a” value was determined as 52.7.
`O=C(Nc1cccnc1-n1cnc(Cn2nc(-c3ccc(Cl)cc3)n(C[C@H](O)C(F)(F)F)c2=O)n1)C1CC1(F)F` (single isomer, unassigned) [Example 42]: the IC50 at human V2 receptor (3 hours) was determined as 620 nM; at human V1a receptor, 23 nM. On human V1a receptor, the “ratio IC50 hV2/hV1a” value is 27.0.
Turning to `O=C(Nc1cccnc1-n1cnc(Cn2nc(-c3ccc(Cl)cc3)n(C[C@H](O)C(F)(F)F)c2=O)n1)C1CC1(F)F` (single isomer, unassigned) [Example 43], the IC50 on human V2 receptor (3 hours) worked out at 213 nM. At human V1a receptor, the IC50 turned out to be 5.85 nM and the “ratio IC50 hV2/hV1a” value stood at 36.5.
Regarding `O=C(Nc1cccnc1-n1cnc(Cn2nc(-c3ccc(Cl)cc3)n(C[C@H](O)C(F)(F)F)c2=O)n1)C1CCS(=O)(=O)C1` (single isomer, unassigned) [Example 51], the IC50 on human V2 receptor (3 hours) worked out at 765 nM. Besides, on human V1a receptor, the IC50 was found to be 5 nM and the “ratio IC50 hV2/hV1a” value is 153.0.
In the case of `O=C(Nc1cccnc1-n1cnc(Cn2nc(-c3ccc(Cl)cc3)n(C[C@H](O)C(F)(F)F)c2=O)n1)C1CCS(=O)(=O)C1` (single isomer, unassigned) [Example 52], at human V2 receptor (3 hours), the IC50 was determined as 2000 nM. For the same compound, at human V1a receptor, the IC50 came out at 11.5 nM and the “ratio IC50 hV2/hV1a” value is listed as 173.9.
With `O=C(Nc1cccnc1-n1cnc(Cn2nc(-c3ccc(Cl)cc3)n(C[C@H](O)C(F)(F)F)c2=O)n1)C1CC1F` (single isomer, unassigned) [Example 55], at human V2 receptor (3 hours), the IC50 is 695 nM. In addition, at human V1a receptor, the IC50 was determined as 3.65 nM and the “ratio IC50 hV2/hV1a” value is 190.4.
The matching figures for `O=C(Nc1cccnc1-n1cnc(Cn2nc(-c3ccc(Cl)cc3)n(C[C@H](O)C(F)(F)F)c2=O)n1)C1CC1F` (single isomer, unassigned) [Example 56]: 405 nM, 4.4 nM and 92.0.
Take `O=C(Nc1cccnc1-n1cnc(Cn2nc(-c3ccc(Cl)cc3)n(C[C@H](O)C(F)(F)F)c2=O)n1)C1CC1F` (single isomer, unassigned) [Example 60]: the IC50 at human V2 receptor (3 hours) was 885 nM. On human V1a receptor, the IC50 came out at 4.25 nM and the “ratio IC50 hV2/hV1a” value is 208.2.
On the same counts, the results for `O=C(Nc1cccnc1-n1cnc(Cn2nc(-c3ccc(Cl)cc3)n(C[C@H](O)C(F)(F)F)c2=O)n1)C1CC1F` (single isomer, unassigned) [Example 61] are 485 nM, 4.35 nM and 111.5.
`O=C(Nc1ncccc1-n1cnc(Cn2nc(-c3ccc(Cl)cc3)n(C[C@H](O)C(F)(F)F)c2=O)n1)C1CC1F` (single isomer, unassigned) [Example 77]: the IC50 on human V2 receptor (3 hours) was determined as 2350 nM. At human V1a receptor, the IC50 turned out to be 12 nM and the “ratio IC50 hV2/hV1a” value worked out at 195.8.
On the same counts, the results for `O=C(Nc1ncccc1-n1cnc(Cn2nc(-c3ccc(Cl)cc3)n(C[C@H](O)C(F)(F)F)c2=O)n1)C1CC1F` (single isomer, unassigned) [Example 78] are 3650 nM, 19.5 nM and 187.2.
On the same counts, the results for `O=C(Nc1ncccc1-n1cnc(Cn2nc(-c3ccc(Cl)cc3)n(C[C@H](O)C(F)(F)F)c2=O)n1)C1CC1F` (single isomer, unassigned) [Example 86] are 1400 nM, 4.5 nM and 311.1.
In the case of `O=C1CCC(NC(=O)c2ccccc2-n2cnc(Cn3nc(-c4ccc(Cl)cc4)n(CC(O)C(F)(F)F)c3=O)n2)CN1` (single isomer, unassigned) [Example 192, 2-[3-({3-(4-Chlorophenyl)-5-oxo-4-[3,3,3-trifluoro-2-hydroxypropyl]-4,5-dihydro-1H-1,2,4-triazol-1-yl}methyl)-1H-1,2,4-triazol-1-yl]-N-[6-oxopiperidin-3-yl]benzamide], the IC50 on human V2 receptor (3 hours) turned out to be 7350 nM. For the same compound, at human V1a receptor, the IC50 came to 74.5 nM and the “ratio IC50 hV2/hV1a” value came to 98.7.
